Source: ChEMBL document CHEMBL5500361, “Probing benzenesulfonamide-thiazolidinone hybrids as multitarget directed ligands for efficient control of type 2 diabetes mellitus through targeting the enzymes: α-glucosidase and carbonic anhydrase II” (Eur J Med Chem, 2024)

What was measured:
Carbonic anhydrase 12 = Carbonic anhydrase 12 (Homo sapiens, UniProt O43570)
Description: Binding affinity to human carbonic anhydrase 12 assessed as inhibition constant incubated for 15 mins by phenol red based stopped-flow CO2 hydration assay

Carbonic anhydrase 2 [1] = biological target: T1, Carbonic anhydrase 2 (Homo sapiens, UniProt P00918)
Description: Binding affinity to human carbonic anhydrase 2 assessed as inhibition constant incubated for 15 mins by phenol red based stopped-flow CO2 hydration assay

Carbonic anhydrase 2 [2] = biological target: T1, Carbonic anhydrase 2; remark: listed apart in the source
Description: Binding affinity to human recombinant carbonic anhydrase 2 assessed as inhibition constant incubated for 15 mins by phenol red based stopped-flow CO2 hydration assay

Carbonic anhydrase 1 = Carbonic anhydrase 1 (Homo sapiens, UniProt P00915)
Description: Binding affinity to human carbonic anhydrase 1 assessed as inhibition constant incubated for 15 mins by phenol red based stopped-flow CO2 hydration assay

Carbonic anhydrase 9 = Carbonic anhydrase 9 (Homo sapiens, UniProt Q16790)
Description: Binding affinity to human carbonic anhydrase 9 assessed as inhibition constant incubated for 15 mins by phenol red based stopped-flow CO2 hydration assay

MCF7 [3] = test: Antiproliferative activity against human MCF7 cells assessed as inhibition of cell growth under normoxia condition by MTT colorimetric assay
MCF7 [4] = test: Antiproliferative activity against human MCF7 cells assessed as inhibition of cell growth under hypoxia condition by MTT colorimetric assay

Carbonic anhydrase 12, sequence (O43570 whole entry): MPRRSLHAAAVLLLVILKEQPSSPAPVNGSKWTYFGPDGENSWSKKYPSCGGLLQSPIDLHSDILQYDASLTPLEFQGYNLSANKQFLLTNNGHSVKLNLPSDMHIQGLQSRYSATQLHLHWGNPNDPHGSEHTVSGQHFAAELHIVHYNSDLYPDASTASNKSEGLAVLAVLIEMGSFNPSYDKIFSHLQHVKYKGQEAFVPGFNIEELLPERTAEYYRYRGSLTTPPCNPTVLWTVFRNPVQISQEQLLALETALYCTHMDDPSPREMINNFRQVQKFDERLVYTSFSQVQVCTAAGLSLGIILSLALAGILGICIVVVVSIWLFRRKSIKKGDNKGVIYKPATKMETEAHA
Carbonic anhydrase 1, sequence (P00915 whole entry): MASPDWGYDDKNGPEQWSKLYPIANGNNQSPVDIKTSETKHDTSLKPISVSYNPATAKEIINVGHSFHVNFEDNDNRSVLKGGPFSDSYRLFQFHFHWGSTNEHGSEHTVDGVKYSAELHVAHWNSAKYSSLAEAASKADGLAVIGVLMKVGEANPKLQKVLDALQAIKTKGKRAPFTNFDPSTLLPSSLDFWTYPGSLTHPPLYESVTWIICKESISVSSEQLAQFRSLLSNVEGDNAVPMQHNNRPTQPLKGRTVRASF

SMILES	Ki (Carbonic anhydrase 12)	Ki (Carbonic anhydrase 2 [1])	other results
COc1ccc(/C=C2/S/C(=N/c3ccc(S(N)(=O)=O)cc3)NC2=O)cc1	77.6 nM	24.3 nM	–
NS(=O)(=O)c1ccc(N2C(=O)CS/C2=N\C(=O)c2ccccc2)cc1	–	–	Ki (Carbonic anhydrase 2 [2]): 0.41 nM
NS(=O)(=O)c1ccc(/N=C2\NC(=O)/C(=C\c3ccc(Cl)cc3)S2)cc1	–	95.7 nM	–
CCN1C(=O)/C(=C\c2ccccc2)S/C1=N/c1ccc(S(N)(=O)=O)cc1	96.3 nM	77.2 nM	–
NS(=O)(=O)c1ccc(/N=C2\NC(=O)/C(=C\c3ccc(F)cc3)S2)cc1	–	7 nM	–
NS(=O)(=O)c1ccc(/N=C2\NC(=O)/C(=C\c3ccccc3)S2)cc1	120 nM	90.5 nM	–

The remaining compounds from weak to strong by Ki (Carbonic anhydrase 12), led by results:

Ki (Carbonic anhydrase 12)	Ki (Carbonic anhydrase 2 [1])	SMILES	other results
74.5 nM	44.5 nM	CN1C(=O)/C(=C\c2ccccc2)S/C1=N/c1ccc(S(N)(=O)=O)cc1	–
66.6 nM	54.6 nM	COc1ccc(/C=C2/S/C(=N/c3ccc(S(N)(=O)=O)cc3)N(C)C2=O)cc1	–
56.6 nM	–	CCN1C(=O)/C(=C\c2ccc(OC)cc2)S/C1=N/c1ccc(S(N)(=O)=O)cc1	–
48.8 nM	–	CN1C(=O)/C(=C\c2ccc(Cl)cc2)S/C1=N/c1ccc(S(N)(=O)=O)cc1	–
37 nM	30.7 nM	CN1C(=O)/C(=C\c2ccc(F)cc2)S/C1=N/c1ccc(S(N)(=O)=O)cc1	–
36.3 nM	30.5 nM	CCN1C(=O)/C(=C\c2ccc(Cl)cc2)S/C1=N/c1ccc(S(N)(=O)=O)cc1	–
33.5 nM	23 nM	NS(=O)(=O)c1ccc(/N=C2\NC(=O)/C(=C3\C(=O)Nc4ccccc43)S2)cc1	Ki (Carbonic anhydrase 1): 631 nM; Ki (Carbonic anhydrase 9): 47 nM
11 nM	85 nM	CCN1C(=O)/C(=C\c2ccc(F)cc2)S/C1=N/c1ccc(S(N)(=O)=O)cc1	IC50 (MCF7 [3]): 21600 nM; IC50 (MCF7 [4]): 34000 nM; Ki (Carbonic anhydrase 1): 4420 nM; Ki (Carbonic anhydrase 9): 33.9 nM
9.1 nM	105 nM	CCN1C(=O)/C(=C2\C(=O)Nc3ccccc32)S/C1=N/c1ccc(S(N)(=O)=O)cc1	–
